Here are results for three compounds from patent publication US11964972B2, “Salt form” (CRT Pioneer Fund LP, priority 2018, dated 2024).

By Solubility is commonly meant the concentration that dissolves in the medium under given conditions.

One series addresses T1, MPS1 kinase (Homo sapiens, UniProt P33981).
T1 sequence (P33981 1-857): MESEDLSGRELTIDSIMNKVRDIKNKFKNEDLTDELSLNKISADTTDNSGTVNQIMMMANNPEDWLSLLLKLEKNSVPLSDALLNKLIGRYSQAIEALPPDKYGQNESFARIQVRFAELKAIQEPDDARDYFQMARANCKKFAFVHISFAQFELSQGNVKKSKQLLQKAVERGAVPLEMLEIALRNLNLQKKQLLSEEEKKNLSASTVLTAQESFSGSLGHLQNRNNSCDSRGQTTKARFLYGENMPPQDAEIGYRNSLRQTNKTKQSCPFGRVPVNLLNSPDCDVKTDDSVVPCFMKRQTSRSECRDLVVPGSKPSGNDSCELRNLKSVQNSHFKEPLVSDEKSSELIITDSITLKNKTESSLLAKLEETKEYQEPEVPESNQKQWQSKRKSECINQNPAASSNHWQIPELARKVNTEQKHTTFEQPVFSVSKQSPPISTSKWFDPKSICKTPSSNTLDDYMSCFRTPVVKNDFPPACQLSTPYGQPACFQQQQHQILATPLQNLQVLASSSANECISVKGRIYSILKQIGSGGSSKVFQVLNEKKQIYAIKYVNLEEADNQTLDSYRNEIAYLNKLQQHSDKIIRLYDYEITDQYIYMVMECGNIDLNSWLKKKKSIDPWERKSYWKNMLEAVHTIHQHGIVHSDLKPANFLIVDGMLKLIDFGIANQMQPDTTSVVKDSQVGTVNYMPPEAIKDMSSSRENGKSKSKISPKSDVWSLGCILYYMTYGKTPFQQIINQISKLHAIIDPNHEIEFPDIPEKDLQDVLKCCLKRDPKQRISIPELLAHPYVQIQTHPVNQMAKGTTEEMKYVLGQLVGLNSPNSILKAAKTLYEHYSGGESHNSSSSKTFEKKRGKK
Particulars: background statement; WO 2014/037750; cited from earlier work.

Series [1] can be described thus: Recrystallisation studies (XRPD form classification). It is filed as physicochemical. The procedure:
The ditosylate salt of the compound of formula I (about 100 mg) was suspended in a designated volume of water miscible solvent at a given temperature, followed by the addition of one volume aliquots of pre-heated water until dissolution was achieved. The agitated mixtures were then cooled to 20° C. and agitated for about 16 hours. […] Solvent, solvent ratios and form classification of the isolated solids are detailed in Table 2.

For series [2] the following is noted: for XRPD classification: 20/40° C. cycling. On the procedure: The equilibration of a solid in various solvents with temperature modulation is an accepted approach to investigate the form stability of a solid and the generation of alternate modifications, polymorphs/solvates of the material.
The ditosylate of the compound of formula I, 35 mg, was subjected to equilibration in various solvents with agitation at 20° C. for 90 hours, 40° C. for 3 hours, cooled to 20° C. over 3 hours, then heated to 40° C. for 16 hours and cooled to 20° C. The solvents were initially charged to the salts in aliquots, 0.25 ml, until dissolution was observed or a volume of 2 ml achieved. The solids were isolated by filtration and dried in vacuo at 50° C. for about 16 hours and then analysed by XRPD.

How the values of series [3] were obtained: The ability of samples studied to absorb moisture (or not) over a set of well-determined humidity ranges was assessed. Sorption isotherms were obtained using a Hiden Isochema moisture sorption analyser (model IGAsorp), controlled by IGAsorp Systems Software V6.50.48. The sample was maintained at a constant temperature (25° C.) by the instrument controls. The humidity was controlled by mixing streams of dry and wet nitrogen, with a total flow of 250 ml·min^−1. The instrument was verified for relative humidity content by measuring three calibrated Rotronic salt solutions (10-50-88%). The weight change of the sample was monitored as a function of humidity by a microbalance (accuracy +/−0.005 mg). A defined amount of sample (typically 10-15 mg powder) was placed in a tared mesh stainless steel basket under ambient conditions. A full experimental cycle typically consisted of three scans (desorption, sorption, and desorption) at a constant temperature (25° C.) and 10% RH intervals over a 0-90% range (60 minutes for each humidity level). Solids are then held post cycle at 0% RH for 2-3 hours and tested by XRPD and the remainder held at 90% RH for 2-3 hours and re-tested by XRPD.

For series [4] the following is noted: 40° C. and 75% RH, 3 weeks. The procedure: The ditosylate salt of the compound of formula I was stored at 40° C. and 75% RH in loose screw top vials for 3 weeks.
For series [5] the following is noted: for Solubility: Form A, 37° C., minimum of 23 hours; for pH: pH of the aqueous mixture. On the procedure: Crystalline ditosylate salt of the compound of formula I (about 40 mg, Form A) was suspended by gentle shaking in various aqueous buffers, biologically relevant media and formulation vehicles, 2×0.5 ml, at ambient temperature, ca 20° C. The mixtures were then heated to 37° C. with agitation for a minimum of 23 hours. The pH of the aqueous mixtures were also measured.
Table 1 presents the pH measurements and the solubility in various dissolution media.

Where [6] appears, read: from 0 to 90% RH, 25° C., Form A.

Molecules are shown by their SMILES. Where two headings read alike, the source gives them in different places.

Turning to `CCOc1cc(-c2nncn2C)ccc1Nc1ncc2cc(C)nc(NCC(C)(C)C)c2n1` [compound I, N2-(2-ethoxy-4-(4-methyl-4H-1,2,4-triazol-3-yl)phenyl)-6-methyl-N8-neopentylpyrido[3,4-d]pyrimidine-2,8-diamine], at MPS1 kinase, the “MPS1 kinase inhibitory activity” value is reported as “potent MPS1 kinase inhibitory activity”.
In the case of `CCOc1cc(-c2nncn2C)ccc1Nc1ncc2cc(C)nc(NCC(C)(C)C)c2n1.Cc1ccc(S(=O)(=O)O)cc1.Cc1ccc(S(=O)(=O)O)cc1` [ditosylate Form C, ditosylate salt of N2-(2-ethoxy-4-(4-methyl-4H-1,2,4-triazol-3-yl)phenyl)-6-methyl-N8-neopentylpyrido[3,4-d]pyrimidine-2,8-diamine Form C], in series [1] (solid isolated from exclusively ethanol, FIG. 5, FIG. 6), the “Form stability on thermal manipulation (XRPD, DSC)” value was “metastable form that could be thermally converted to ditosylate Form A”.
With `CCOc1cc(-c2nncn2C)ccc1Nc1ncc2cc(C)nc(NCC(C)(C)C)c2n1.Cc1ccc(S(=O)(=O)O)cc1.Cc1ccc(S(=O)(=O)O)cc1` [ditosylate salt of N2-(2-ethoxy-4-(4-methyl-4H-1,2,4-triazol-3-yl)phenyl)-6-methyl-N8-neopentylpyrido[3,4-d]pyrimidine-2,8-diamine], the XRPD classification result in series [2] (equilibration in 1,4-Dioxane), in series [2] (equilibration in 1-Butanol), in series [2] (equilibration in 2-Chlorobutane), in series [2] (equilibration in 2-Methyltetrahydrofuran), in series [2] (equilibration in 2-Propanol) and in series [2] (equilibration in 3-Methyl-1-butanol) was “Form A” throughout. Besides, the XRPD classification result in series [2] (equilibration in Acetonitrile), in series [2] (equilibration in Chlorobenzene), in series [2] (equilibration in Ethyl acetate), in series [2] (equilibration in Heptane), in series [2] (equilibration in Isopropyl acetate) and in series [2] (equilibration in Methanol) was “Form A” each time. The XRPD classification entry in series [2] (equilibration in Methyl isobutyl ketone), in series [2] (equilibration in Methylcyclohexane), in series [2] (equilibration in Nitromethane), in series [2] (equilibration in TBME), in series [2] (equilibration in Toluene) and in series [2] (equilibration in Trifluorotoluene) was “Form A” throughout. Further, the XRPD classification result in series [2] (equilibration in Water) and in series [2] (equilibration in n-Butyl acetate) was “Form A” throughout. The “Propensity to exhibit version or polymorphic variance” value in series [2] (summary of the polymorphism studies) was “remarkable lack of propensity to exhibit version or polymorphic variance”. The “Form change post DVS and at the extremes of humidity (XRPD)” value in series [3] (0% RH and 90% RH, FIG. 8) was “no evidence of form change”. Also, in series [3] (0-90% RH, 25° C., Form A, FIG. 7), the DVS profile entry was “reversible water uptake over the humidity range and no hysteresis”. This compound also had a Water uptake/loss in series [3] (setting [6]) of 2.13%. Moreover, in series [3] (setting [6]), the “Water uptake/loss as equivalents of water” value was “about 1.0 equivalents of water”. For the same compound, in series [4], the “Chemical degradation after storage” value is “no evidence of chemical degradation”. Also, in series [4], the Hydration following storage result is “no evidence”. Moreover, in series [4] (FIG. 4), the “Form modification after storage (XRPD)” value is “No evidence of form modification”. The “Change in appearance after storage” value in series [4] (loose screw top vials) is “No change in appearance”. Moreover, the Solubility worked out at 14210 µg/mL in series [5] (FaSSIF); 1690 µg/mL in series [5] (FeSSIF); 12690 µg/mL in series [5] (NaCl,0.9%/DMSO/Tween 20); 2900 µg/mL in series [5] (PEG300); 2240 µg/mL in series [5] (Phosphate buffer); 5720 µg/mL in series [5] (SFaGF). Moreover, the Solubility in series [5] (Sodium chloride 0.9% w/v) was determined as 9580 µg/mL; in series [5] (Water, deionised) it was 5850 µg/mL. Moreover, the pH in series [5] (Acetate buffer) is reported as 4.33; in series [5] (FaSSIF), 2.41; in series [5] (FeSSIF) it was 3.05; in series [5] (NaCl,0.9%/DMSO/Tween 20) it was 1.97; in series [5] (Phosphate buffer), 2.56; in series [5] (SFaGF), 1.40. Further, the pH is reported as 2.01 in series [5] (Sodium chloride 0.9% w/v) and 2.13 in series [5] (Water, deionised). In addition, the “XRPD Observations” value is recorded as “Form A” in series [1] (2-butanone 8 volumes, water 1 volume, 80 ° C.); “Form A” in series [1] (2-propanol 8 volumes, water 1 volume, 80 ° C.); “Form A” in series [1] (Acetone 10 volumes, water 2 volumes, 60 ° C.); “Form A” in series [1] (Acetonitrile 2 volumes, water 1 volume, 60 ° C.); “Form A” in series [1] (Ethanol 2 volumes, water 1 volume, 60 ° C.); “Form C” in series [1] (Ethanol 15 volumes, no water, 80 ° C.).
